Measurements published in patent US11945819B1, “Dimethyl 7-bromo-1-(4-substituted benzoyl)pyrrolo[1,2-a]quinoline-2,3-dicarboxylates as anti-inflammatory agents” (KING FAISAL UNIVERSITY, priority 2023, dated 2024).

Key:
bovine serum albumin = bovine serum albumin (Bos taurus, UniProt P02769); test: In vitro anti-inflammatory activity by inhibition of bovine serum albumin denaturation; format: biochemical; conditions: for % Inhibition at 10 μg: inhibition of heat-induced albumin denaturation (60° C., 10 min), turbidity, average of triplicate; for inhibition rate: at 10 μg, bovine serum albumin denaturation method
bovine serum albumin, sequence (P02769 25-607): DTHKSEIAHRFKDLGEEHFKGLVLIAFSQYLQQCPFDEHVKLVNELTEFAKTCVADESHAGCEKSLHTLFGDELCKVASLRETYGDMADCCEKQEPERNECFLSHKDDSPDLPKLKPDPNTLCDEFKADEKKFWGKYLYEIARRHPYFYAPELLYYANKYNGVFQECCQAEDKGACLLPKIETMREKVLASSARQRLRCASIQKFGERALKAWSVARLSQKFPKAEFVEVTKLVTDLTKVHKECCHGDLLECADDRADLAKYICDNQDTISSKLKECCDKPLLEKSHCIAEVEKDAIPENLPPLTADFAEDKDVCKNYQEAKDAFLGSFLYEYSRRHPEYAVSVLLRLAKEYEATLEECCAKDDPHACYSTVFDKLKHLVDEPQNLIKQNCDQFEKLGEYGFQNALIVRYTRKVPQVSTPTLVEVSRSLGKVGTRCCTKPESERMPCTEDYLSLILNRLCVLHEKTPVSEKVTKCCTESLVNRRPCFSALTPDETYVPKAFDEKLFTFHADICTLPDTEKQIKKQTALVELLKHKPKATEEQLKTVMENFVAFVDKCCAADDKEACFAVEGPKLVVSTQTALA
Description: Accordingly, in an embodiment of the present subject matter, the dimethyl 7-bromo-1-(4- substituted benzoyl)pyrrolo[1,2-α]quinoline-2,3-dicarboxylates derivatives, or the dimethyl 7-bromo-1-(4-substituted benzoyl)pyrrolo[1,2-α]quinoline-2,3-dicarboxylates, as described herein were screened for their in vitro anti-inflammatory activity by inhibiting the bovine serum albumin denaturation method. The test compound is dissolved in a minimum amount of dimethyl sulphoxide (DMSO) and diluted with phosphate buffer. The final concentration of DMF in all solutions is less than 2.5%. Test solutions containing different concentrations of the drug is mixed with albumin solution in phosphate buffer and incubated at about 27-37° C.±10° C. for about at least 15 min. Denaturation is induced by keeping the reaction mixture at about 60° C.±10° C. in a water bath for at least about 10 min. After cooling, the turbidity is measured at about 210-660 nm (Shimadzu Spectrometer). Percentage inhibition of denaturation is calculated from a control where no drug was added. The percentage of inhibition is calculated from the following formula. The standard solution is also prepared as similar to that of the test solution. Ibuprofen can be used as a standard.
The newly synthesized compounds were screened for their in-vitro anti-inflammatory activity by inhibiting the bovine serum albumin denaturation method. The test compounds were dissolved in a minimum dimethyl sulphoxide (DMSO) and diluted with phosphate buffer (0.2M, pH 7.4). The final concentration of DMF in all solutions was less than 2.5%. Test solution (1 mL) containing different concentrations of the drug was mixed with 1 mL of 1 mm albumin solution in phosphate buffer and incubated at 27-37° C.±10° C. for 15 min. Denaturation was induced by keeping the reaction mixture at 60° C.±10° C. in a water bath for 10 min. After cooling, the turbidity was measured at 210-660 nm (Shimadzu Spectrometer). Percentage inhibition of denaturation was calculated from control where no drug was added. Each experiment was done in triplicate, and the average was taken. The percentage of inhibition is calculated from the following formula. The standard solution was also prepared as similar to that of the test solution. Ibuprofen was used as a standard.
The inhibition was calculated using the following equation: % Inhibition=100 (1−Vt/Vc) where, Vt=Drug absorbance of triplicate average Vc=Control absorbance of triplicate average

Row | % Inhibition at 10 μg (bovine serum albumin) | inhibition rate (bovine serum albumin) | melting point | Structure (SMILES)
1 | 49.75% | 49.75% | 169 to 171 °C | COC(=O)c1c(C(=O)OC)c2ccc3cc(Br)ccc3n2c1C(=O)c1ccc(F)cc1 [Compound 3a, dimethyl 7-bromo-1-(4-fluorobenzoyl)pyrrolo[1,2-α]quinoline-2,3-dicarboxylate]
2 | 42.52% | 42.52% | 210 to 212 °C | COC(=O)c1c(C(=O)OC)c2ccc3cc(Br)ccc3n2c1C(=O)c1ccc(Cl)cc1 [Compound 3b, dimethyl 7-bromo-1-(4-chlorobenzoyl)pyrrolo[1,2-α]quinoline-2,3-dicarboxylate]
3 | 54.35% | 54.35% | 170 to 172 °C | COC(=O)c1c(C(=O)OC)c2ccc3cc(Br)ccc3n2c1C(=O)c1ccc(Br)cc1 [Compound 3c, dimethyl 7-bromo-1-(4-bromobenzoyl)pyrrolo[1,2-α]quinoline-2,3-dicarboxylate]
